Results on 27 compounds are retold here after patent publication US8883782B2, “Spiro-tetracyclic ring compounds as beta-secretase modulators and methods of use” (Amgen Inc., priority 2010, dated 2014).

Like-named read-outs stand apart in the source and are kept apart here.

Assay [1] concerns the target Beta Secretase enzyme (BACE) (Homo sapiens, UniProt P56817). In words: In vitro enzymatic BACE FRET (fluorescence resonance energy transfer) assay. It counts as biochemical. Particulars: average IC50, enzyme assay; read-out: BACE 1 FRET assay. The method in brief: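 Run in 0.05 M acetate pH 4.2 with 10% DMSO final and 100 uM genapol; started by adding 50 nM FRET peptide substrate (fluorophore and quencher flanking the cleavage site), incubated one hour, then stopped with Tris to neutral pH before reading fluorescence.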

Assay [2] concerns Aβ40 in conditioned medium of cells stably expressing Amyloid Precursor Protein (APP). In words: In vitro BACE cell-based assay (Aβ40 in conditioned medium, sandwich ELISA). The settings on record: read-out: HEK cell assay. In outline: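 Quantification relied on pAb40/6E10 sandwich ELISA with Europium fluorescence counts, and IC50 was fitted versus concentration.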
(In an ELISA, binding on a coated surface is turned into a signal by an enzyme label.)

Where [3] appears, read: Homo sapiens, HEK293, average IC50.
[4] abbreviates: Homo sapiens, HEK293, average IC50, HEK cells.

Beta Secretase enzyme (BACE), sequence (P56817 46-501, species assumed): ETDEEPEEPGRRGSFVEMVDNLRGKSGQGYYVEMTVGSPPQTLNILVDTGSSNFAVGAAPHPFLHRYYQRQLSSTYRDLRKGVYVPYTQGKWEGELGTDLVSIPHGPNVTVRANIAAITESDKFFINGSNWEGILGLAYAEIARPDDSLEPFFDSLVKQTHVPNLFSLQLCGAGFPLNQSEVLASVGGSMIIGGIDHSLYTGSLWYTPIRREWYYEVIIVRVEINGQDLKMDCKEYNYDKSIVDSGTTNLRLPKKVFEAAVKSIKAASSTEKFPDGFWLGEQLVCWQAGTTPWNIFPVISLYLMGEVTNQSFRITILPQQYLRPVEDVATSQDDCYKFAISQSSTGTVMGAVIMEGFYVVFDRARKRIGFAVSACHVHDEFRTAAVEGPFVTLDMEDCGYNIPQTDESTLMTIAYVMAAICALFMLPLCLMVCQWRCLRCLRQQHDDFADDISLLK

As for `NC1=N[C@@]2(CO1)c1cc(-c3cccnc3F)ccc1Oc1c(F)cc(OCCF)cc12` [Example 1043, (4S)-4′-fluoro-2′-(2-fluoroethoxy)-7′-(2-fluoro-3-pyridinyl)spiro[1,3-oxazole-4,9′-xanthen]-2-amine], the IC50 was found to be 1 nM in assay [1] and 57 nM in assay [2] (setting [3]).

Take `N#Cc1cccc(COc2ccc3c(c2)[C@@]2(COC(N)=N2)c2cc(-c4cccnc4)cnc2O3)c1` [Example 984, 3-((((5S)-2′-amino-3-(3-pyridinyl)spiro[chromeno[2,3-b]pyridine-5,4′-[1,3]oxazol]-7-yl)oxy)methyl)benzonitrile]: the values for the IC50 in assay [1] and in assay [2] (setting [3]) were 30.8 nM and 125 nM, respectively.

Consider `NC1=N[C@@]2(CS1)c1cc(-c3cccnc3F)ccc1Oc1c2cc(Cl)nc1F` [Example 1024, (5S)-3-chloro-1-fluoro-7-(2-fluoro-3-pyridinyl)spiro[chromeno[2,3-c]pyridine-5,4′-[1,3]thiazol]-2′-amine], for which the IC50 in assay [1] amounted to 6.6 nM; in assay [2] (setting [3]), 1440 nM.

Take `NC1=N[C@@]2(CO1)c1cc(-c3ccncc3F)ccc1Oc1cnc(-c3cncc(F)c3)cc12` [Example 575, (5S)-7-(3-fluoro-4-pyridinyl)-3-(5-fluoro-3-pyridinyl)spiro[chromeno[2,3-c]pyridine-5,4′-[1,3]oxazol]-2′-amine]: the IC50 in assay [1] was 83 nM; in assay [2] (setting [4]), 971 nM.

For `NC1=N[C@@]2(CS1)c1cc(-c3cncc(F)c3)ccc1Oc1cnc(C3=CCOCC3)cc12` [Example 592, (5S)-3-(3,6-dihydro-2H-pyran-4-yl)-7-(5-fluoro-3-pyridinyl)spiro[chromeno[2,3-c]pyridine-5,4′-[1,3]thiazol]-2′-amine], the IC50 was found to be 0.9 nM in assay [1] and 21.3 nM in assay [2] (average IC50, HEK cells).

For `COc1cc(F)c2c(c1)[C@]1(COC(N)=N1)c1cc(-c3cncnc3)c(F)cc1O2` [Example 556, (4S)-3′,5′-difluoro-7′-methoxy-2′-(5-pyrimidinyl)spiro[1,3-oxazole-4,9′-xanthen]-2-amine], the IC50 in assay [1] worked out at 8.9 nM; in assay [2] (setting [4]), 146 nM.

Regarding `CC1(C#Cc2cnc3c(c2)[C@]2(CSC(N)=N2)c2cc(-c4ccc(F)nc4)ccc2O3)COC1` [Example 961, (5S)-7-(6-fluoro-3-pyridinyl)-3-((3-methyl-3-oxetanyl)ethynyl)spiro[chromeno[2,3-b]pyridine-5,4′-[1,3]thiazol]-2′-amine], the IC50 in assay [1] was 1 nM; in assay [2] (setting [4]), 18 nM.

Take `NC1=N[C@@]2(CO1)c1cc(-c3ccccc3)ccc1Oc1cnc(-c3ccccc3)cc12` [Example 142, (5S)-3,7-diphenylspiro[chromeno[2,3-c]pyridine-5,4′-[1,3]oxazol]-2′-amine]: the values for the IC50 in assay [1] and in assay [2] (setting [3]) were 15.8 nM and 532 nM, respectively.

For the compound `CC(C)(C#N)COc1cc(F)c2c(c1)[C@]1(COC(N)=N1)c1cc(-c3cncnc3)c(F)cc1O2` [Example 667, 3-(((4S)-2-amino-4′,6′-difluoro-7′-(5-pyrimidinyl)spiro[1,3-oxazole-4,9′-xanthen]-2′-yl)oxy)-2,2-dimethylpropanenitrile], the IC50 in assay [1] stood at 0.6 nM; in assay [2] (setting [4]), 16 nM.

Take `NC1=N[C@]2(CO1)c1cc(C3=CCOCC3)cc(F)c1Oc1ccc(-c3cccnc3F)c(F)c12` [Example 1047, (4R)-7′-(3,6-dihydro-2H-pyran-4-yl)-1′,5′-difluoro-2′-(2-fluoro-3-pyridinyl)spiro[1,3-oxazole-4,9′-xanthen]-2-amine]: the IC50 stood at 4.6 nM in assay [1] and 95 nM in assay [2] (setting [3]).

Regarding `NC1=N[C@@]2(CO1)c1cc(-c3cccnc3F)ccc1Oc1cc(F)c(C3=CCOCC3)cc12` [Example 320, (4S)-2′-(3,6-dihydro-2H-pyran-4-yl)-3′-fluoro-7′-(2-fluoro-3-pyridinyl)spiro[1,3-oxazole-4,9′-xanthen]-2-amine], the IC50 in assay [1] is 6.6 nM; in assay [2] (setting [3]), 60 nM.

For `N#Cc1ncccc1-c1ccc2c(c1)[C@@]1(COC(N)=N1)c1cc(Cl)ncc1O2` [Example 387, 3-((5S)-2′-amino-3-chlorospiro[chromeno[2,3-c]pyridine-5,4′-[1,3]oxazol]-7-yl)-2-pyridinecarbonitrile], the IC50 is 672 nM in assay [1] and 10000 nM in assay [2] (setting [4]).

For “(4S)-2′-(2-chloro-4-pyrimidinyl)-4′-fluoro-7′-(2-fluoro-3-pyridinyl)spiro[1,3-oxazole-4,9′-xanthen]-2-amine [Example 221]”, the figures for the IC50 in assay [1] and in assay [2] (average IC50) were 0.7 nM and 129 nM, respectively.

Turning to `N#Cc1cccc(-c2ccc3c(c2)[C@@]2(COC(N)=N2)c2cc(N4CCC(F)(F)C4)nc(F)c2O3)c1` [Example 920, 3-((5S)-2′-amino-3-(3,3-difluoro-1-pyrrolidinyl)-1-fluorospiro[chromeno[2,3-c]pyridine-5,4′-[1,3]oxazol]-7-yl)benzonitrile], the IC50 in assay [1] was determined as 0.2 nM; in assay [2] (setting [4]) it was 12 nM.

As to `NC1=N[C@@]2(CO1)c1cc(Br)ccc1Oc1c2cc(Cl)nc1F` [Example 487, (5S)-7-bromo-3-chloro-1-fluorospiro[chromeno[2,3-c]pyridine-5,4′-[1,3]oxazol]-2′-amine], the figures for the IC50 in assay [1] and in assay [2] (setting [4]) were 3680 nM and 740 nM, respectively.

For `NC1=N[C@@]2(CO1)c1cc(OCc3ccccc3)ccc1Oc1ncc(C3=CCOCC3)cc12` [Example 967, (5S)-7-(benzyloxy)-3-(3,6-dihydro-2H-pyran-4-yl)spiro[chromeno[2,3-b]pyridine-5,4′-[1,3]oxazol]-2′-amine], the IC50 in assay [1] was 44.4 nM; in assay [2] (setting [4]), 463 nM.

With `COc1nc(C2=CCCOC2)cc2c1Oc1ccc(-c3cccnc3)cc1[C@@]21COC(N)=N1` [Example 841, (5S)-3-(5,6-dihydro-2H-pyran-3-yl)-1-methoxy-7-(3-pyridinyl)spiro[chromeno[2,3-c]pyridine-5,4′-[1,3]oxazol]-2′-amine], the IC50 in assay [1] is 1.2 nM; in assay [2] (setting [3]), 6 nM.

Regarding `CC(C)(C)COc1ccc2c(c1)[C@]1(COC(N)=N1)c1cc(-c3cncnc3)c(F)cc1O2` [Example 512, (4S)-7′-(2,2-dimethylpropoxy)-3′-fluoro-2′-(5-pyrimidinyl)spiro[1,3-oxazole-4,9′-xanthen]-2-amine], the values for the IC50 in assay [1] and in assay [2] (setting [4]) were 103 nM and 378 nM, respectively.

`CC1(COc2cc(F)c3c(c2)[C@]2(CSC(N)=N2)c2cc(-c4cccnc4)c(F)cc2O3)COC1` [Example 878, (4S)-3′,5′-difluoro-7′-((3-methyl-3-oxetanyl)methoxy)-2′-(3-pyridinyl)spiro[1,3-thiazole-4,9′-xanthen]-2-amine]: the IC50 in assay [1] is 0.4 nM; in assay [2] (setting [4]), 8 nM.

On to `NC1=N[C@@]2(CO1)c1cc(-c3cccnc3F)c(F)cc1Oc1c(F)cc(C3CCOCC3)cc12` [Example 872, (4S)-3′,5′-difluoro-2′-(2-fluoro-3-pyridinyl)-7′-(tetrahydro-2H-pyran-4-yl)spiro[1,3-oxazole-4,9′-xanthen]-2-amine], for which the results for the IC50 in assay [1] and in assay [2] (setting [4]) were 0.6 nM and 15 nM, respectively.

As to `CC#Cc1cncc(-c2ccc3c(c2)[C@@]2(COC(N)=N2)c2cc(C4CCOCC4)nc(F)c2O3)c1` [Example 753, (5S)-1-fluoro-7-(5-(1-propyn-1-yl)-3-pyridinyl)-3-(tetrahydro-2H-pyran-4-yl)spiro[chromeno[2,3-c]pyridine-5,4′-[1,3]oxazol]-2′-amine], the IC50 stood at 0.7 nM in assay [1] and 4 nM in assay [2] (setting [3]).

As to `NC1=N[C@@]2(CS1)c1cc(-c3cccnc3F)ccc1Oc1c(F)cc(-c3ccnc(F)c3)cc12` [Example 1071, (4S)-4′-fluoro-7′-(2-fluoro-3-pyridinyl)-2′-(2-fluoro-4-pyridinyl)spiro[1,3-thiazole-4,9′-xanthen]-2-amine], the IC50 in assay [1] was 0.3 nM; in assay [2] (setting [3]), 44 nM.

As for `CC#Cc1cncc(-c2ccc3c(c2)[C@@]2(CSC(N)=N2)c2cc(C#CC4(C)COC4)cnc2O3)c1` [Example 782, (5S)-3-((3-methyl-3-oxetanyl)ethynyl)-7-(5-(1-propyn-1-yl)-3-pyridinyl)spiro[chromeno[2,3-b]pyridine-5,4′-[1,3]thiazol]-2′-amine], the values for the IC50 in assay [1] and in assay [2] (setting [3]) were 0.9 nM and 4 nM, respectively.

Regarding `CC1(C#Cc2cc3c(nc2F)Oc2ccc(-c4cccnc4F)cc2C32COC(N)=N2)COC1` (stereo not drawn) [Example 149, 2-fluoro-7-(2-fluoro-3-pyridinyl)-3-((3-methyl-3-oxetanyl)ethynyl)spiro[chromeno[2,3-b]pyridine-5,4′-[1,3]oxazol]-2′-amine], the IC50 in assay [1] worked out at 0.8 nM; in assay [2] (setting [3]), 7.6 nM.

For `NC1=N[C@@]2(CS1)c1cc(-c3ccc(F)nc3)ccc1Oc1ncc(C3=CCOCC3)cc12` [Example 966, (5S)-3-(3,6-dihydro-2H-pyran-4-yl)-7-(6-fluoro-3-pyridinyl)spiro[chromeno[2,3-b]pyridine-5,4′-[1,3]thiazol]-2′-amine], the values for the IC50 in assay [1] and in assay [2] (setting [4]) were 2.2 nM and 32 nM, respectively.

As to `Cn1cc(-c2cc(F)c3c(c2)[C@]2(COC(N)=N2)c2cc(-c4cncc(C#N)c4)ccc2O3)cn1` [Example 554, 5-((4S)-2-amino-5′-fluoro-7′-(1-methyl-1H-pyrazol-4-yl)spiro[1,3-oxazole-4,9′-xanthen]-2′-yl)-3-pyridinecarbonitrile], the IC50 in assay [1] worked out at 1.6 nM; in assay [2] (setting [4]), 6.3 nM.

As to `NC1=N[C@@]2(CO1)c1cc(-c3cccnc3F)ccc1Oc1nc(F)c(I)cc12` [Example 898, (5S)-2-fluoro-7-(2-fluoro-3-pyridinyl)-3-iodospiro[chromeno[2,3-b]pyridine-5,4′-[1,3]oxazol]-2′-amine], the IC50 in assay [1] is 10600 nM; in assay [2] (setting [4]), no less than 10000 nM.
